≈ marks a conversion by molar mass, not a printed value. Numbered stars: 1 amine (or outer) side, 2 acyl side, 3 side chain; on linkers, the order of the positions; unused ones are H or OH. Square brackets hold non-standard residues; d marks the D form. Peptide text beside a SMILES is read from it. * marks the point of attachment. ξ: configuration not given here. X1 = C[C@H]1C[C@@H](C2=N[C@](C)(C(=O)[*:2])CS2)N([*:1])C1; ξNMeTyr(3-Br) = CNC(Cc1ccc(O)c(Br)c1)C(=O)O; NMeF = CN[C@@H](Cc1ccccc1)C(=O)O; Piv = CC(C)(C)C(=O)*; X2 = CCC(=O)C1CCCN1*
What was measured:
Assay type in all cases: cell-based
HeLa S3 cell = assay: growth inhibitory activity against HeLa S3 cell; details: Homo sapiens
Excerpt: The present inventors conducted research on the derivatives of the compound to complete the present invention.
The cyanobacterium Lyngbya sp. collected in Okinawa Prefecture was extracted with MeOH, and partitioned between H2O and AcOEt. The resulting AcOEt layer was further partitioned between 90% MeOH and n-hexane. The 90% MeOH layer thus obtained was separated and purified with various chromatographies using the growth inhibitory activity against tumor cells as an index. As a result, Bisebromoamide (1), which is a novel peptide, was isolated.
The planar structure of the compound was primarily determined by various two-dimensional NMR spectral analyses. […] Subsequently, in order to determine the absolute configuration of Bisebromoamide (1) including eight chiral centers, acid hydrolysis was conducted using 9 M HCl. The resulting acid hydrolysate was fractionated by HPLC, obtaining fractions of Leu, N-Me-Tyr, 4-Me-Pro, N-Me-Phe, Opp, and that of a mixture of Ala and 2-methylcystine. […] Furthermore, 4-Me-Pro, Opp, Ala, and 2-methylcystine were subjected to derivatization using Marfey's reagent, and then analyzed by reversed phase HPLC. […] However, it also turned out that the Opp and 4-Me-Pro completely epimerized at a-position during the acid hydrolysis. Therefore, we reduced the ketone of Opp using NaBH4 before conducting the acid hydrolysis. […]

[1] = system: 39 types of human cancer cells; assay: growth inhibitory activity screening using 39 types of human cancer cells (sulforhodamine B colorimetric assay); details: 48 h, 39 human cancer cell lines, cultured for 2 days, read-out: average GI50 value across all of the cell lines tested
Experimental: Bisebromoamide (1) is a strong cytotoxic substance containing a high degree of D-amino acids and unusual amino acids. In particular, compounds having a 4-Me-Pro, N-Me-3-bromo-Tyr, and N-pivalamide moiety linking to 4-methylthiazoline are very rare, and the 2-Opp unit is unprecedented in natural products. Bisebromoamide (1) was subjected to screening using 39 types of human cancer cells. […] The average GI50 value across all of the cell lines tested was 40 nM.
Cancer cells were seeded in a 96-well plate. A sample solution was added thereto on the following day, and cultured for 2 days. Cell growth was evaluated by sulforhodamine B colorimetric assay. The 39 total cancer cell lines that were tested included 7 lung cancer (Lu) lines, 6 stomach cancer (St) lines, 5 colon cancer (Co) lines, 6 brain neoplasm (CNS) lines, 5 breast cancer (Br) lines, 2 renal cancer (Re) lines, 2 prostatic cancer (xPg) lines, and 1 melanoma (Me) line. The effective concentration deviation of each cancer cell stock from the mean effective drug concentration of the 39 cancer cell lines measured was calculated and expressed as the fingerprint.

phosphorylation of ERK = assay: protein kinase inhibition: Western blot of phosphorylated ERK in PDGF-stimulated NRK cells
Experimental: (§1) NRK cells were seeded in a 96-well plate, and cultured for 3 days. A sample solution was added thereto and treated for 3 hours, followed by PDGF stimulation. Electrophoretic samples were prepared to conduct Western blot using antibodies against phosphorylated signal transduction molecules (AKT, ERK, PKD, PLCγ1, and S6 ribosomal protein) and phosphotyrosine. The effect on the intracellular signal transduction from a PDGF receptor was evaluated. […] The eIF4E, 4E-BP-1, and histone H3 bands confirmed that equal amounts of proteins subjected to electrophoresis.
(§2) Bisebromoamide (1) was added in such a manner that the final concentration became 0.01, 0.1, 1, and 10 μM, in order to determine the presence or absence of inhibition, and the inhibition pattern thereof. The effective inhibitory concentration against each signal transduction molecule activity was investigated.

phosphorylation of AKT = assay: protein kinase inhibition: Western blot of phosphorylated AKT in PDGF-stimulated NRK cells; details: treated 3 hours, PDGF stimulation, 10, 1 and 0.1 μM
Experimental: as §1, §2

[2] = system: phosphorylation of PKD/PKC; assay: protein kinase inhibition: Western blot of phosphorylated PKD/PKC in PDGF-stimulated NRK cells; details: treated 3 hours, PDGF stimulation, 10, 1 and 0.1 μM
Experimental: as §1, §2

phosphorylation of PLCγ1 = assay: protein kinase inhibition: Western blot of phosphorylated PLCγ1 in PDGF-stimulated NRK cells; details: treated 3 hours, PDGF stimulation, 10, 1 and 0.1 μM
Experimental: as §1, §2

[3] = system: phosphorylation of S6 ribosomal protein (S6R); assay: protein kinase inhibition: Western blot of phosphorylated S6 ribosomal protein in PDGF-stimulated NRK cells; details: treated 3 hours, PDGF stimulation, 10, 1 and 0.1 μM
Experimental: as §1, §2

cancer cell growth = assay: inhibitory activity of derivatives against cancer cell growth
Excerpt: The alcohol and hydrazone were examined for their inhibitory activities against cancer cell growth and phosphorylation of ERK.

Row | Structure (SMILES) | IC50 (HeLa S3 cell) | GI50 [1] | inhibition of phosphorylation of ERK (phosphorylation of ERK; NRK cells, treated 3 hours, PDGF stimulation, 10, 1 and 0.1 μM) | effect on phosphorylation of AKT (phosphorylation of AKT) | effect on phosphorylation of PKD/PKC [2] | effect on phosphorylation of PLCγ1 (phosphorylation of PLCγ1) | effect on phosphorylation of S6 ribosomal protein (S6R) [3] | inhibitory activity against phosphorylation of ERK, compared with Bisebromoamide (1) (phosphorylation of ERK) | inhibitory activity against cancer cell growth, compared with Bisebromoamide (1) (cancer cell growth)
1 | CCC(=O)C1CCCN1C(=O)[C@H](Cc1ccccc1)N(C)C(=O)[C@@H](CC(C)C)NC(=O)[C@]1(C)CSC([C@@H]2C[C@H](C)CN2C(=O)C(Cc2ccc(O)c(Br)c2)N(C)C(=O)[C@H](C)NC(=O)C(C)(C)C)=N1 (stereo partly drawn) [Bisebromoamide (1), Bisebromoamide] (Piv-A[ξNMeTyr(3-Br)][X1][dL][NMeF]-X2) | 0.04 µg/mL (≈ 0.0391 µM) | 40 nM | selectively inhibited | no effect | no effect | no effect | no effect |  | 
2 | CCO [alcohol] |  |  |  |  |  |  |  | Results similar to those for Bisebromoamide (1) | Results similar to those for Bisebromoamide (1)

Source: patent US20120122797A1, “PEPTIDIC COMPOUND AND USE OF SAME” (KEIO UNIVERSITY, priority 2009, published 2012)
